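Assay format: 96-well plates, 48-hour exposure. The concentration for 50% growth inhibition is given as GI50. TGI denotes the concentration required for complete inhibition of growth.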
What was measured:
Assay in all cases: inhibition of tumour cell growth, NCI panel, 48 h
786-0 renal = test system: 786-0 renal
A498 renal = test system: A498 renal
EKVX NSCLC = test system: EKVX NSCLC
SF-268 CNS = test system: SF-268 CNS
UACC-257 melanoma = test system: UACC-257 melanoma
UO-31 renal = test system: UO-31 renal
OVCAR-5 ovarian = test system: OVCAR-5 ovarian
COLO 205 colon = test system: COLO 205 colon
HS 578T breast = test system: HS 578T breast
MDA-MB-231 breast = test system: MDA-MB-231 breast

Row | Structure (SMILES) | GI50 (786-0 renal) | TGI (786-0 renal) | GI50 (A498 renal) | TGI (A498 renal) | GI50 (EKVX NSCLC) | TGI (EKVX NSCLC) | GI50 (SF-268 CNS) | GI50 (UACC-257 melanoma) | TGI (UACC-257 melanoma) | GI50 (UO-31 renal) | TGI (UO-31 renal) | GI50 (OVCAR-5 ovarian) | TGI (OVCAR-5 ovarian) | GI50 (COLO 205 colon) | TGI (COLO 205 colon) | GI50 (HS 578T breast) | TGI (HS 578T breast) | GI50 (MDA-MB-231 breast) | TGI (MDA-MB-231 breast) | TGI (SF-268 CNS)
1 | O=C1/C=C/[C@@H](O)[C@@H]2C[C@@H](O)C[C@H]2/C=C/CCCCO1 | 0.25 µM | 0.615 µM | 0.166 µM | 1.92 µM | 0.519 µM | > 21.4 µM | 0.33 µM | 0.545 µM | > 100 µM | 0.304 µM | > 38.1 µM | 0.682 µM | > 61.7 µM | 0.188 µM | 0.393 µM | 0.282 µM | > 100 µM | 0.298 µM | 1.31 µM | –
2 | CC/C(=C(/c1ccc(Cl)cc1)c1ccc(OCCCN(C)C)cc1)c1ccc(OC)cc1 | 0.771 µM | 1.46 µM | 5.5 µM | 12.1 µM | 5.76 µM | 12.6 µM | 7.6 µM | 7.93 µM | 15 µM | 5.3 µM | 11.8 µM | 6.54 µM | 14.2 µM | 0.915 µM | 1.77 µM | 7.08 µM | 16.9 µM | 1.3 µM | 3.29 µM | 16.3 µM

Reference: PubChem BioAssay (NCI)
